# Legend:
# [1] = test system: DLD1 NRF2-GOF; assay: TC50 cytotoxicity; higher = less toxic; settings: 72 h; CellTox Green cytotoxicity
# Procedure, shortened: (§1)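 Isogenic DLD1 colorectal cancer cells differing in NRF2 status, one line edited by CRISPR, were cultured in DMEM with 10% FBS and treated in 384-well plates with library compounds at 5 concentrations spanning a 10,000-fold range. Plates were read after 72 h with CellTox Green on a Pherastar FS reader, and signals were normalised to vehicle wells and 100-μM positive-control wells. Cytotoxicity was summarised as TC50 and as a drug sensitivity score, a normalised area under the curve, both from logistic dose-response fits.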
# [2] = test system: DLD1 NRF2-WT; assay: TC50 cytotoxicity; higher = less toxic; settings: 72 h; CellTox Green cytotoxicity
# Procedure, shortened: as §1
# [3] = test system: DLD1 NRF2-GOF; settings: 72 h; CellTiter-Glo viability
# Procedure, shortened: (§2)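 DLD1 colorectal cancer cells, an isogenic pair either NRF2 wild-type or carrying a CRISPR gain-of-function, were cultured in DMEM with 10% FBS and treated in 384-well plates with library compounds at 5 concentrations across a 10,000-fold range. CellTiter-Glo viability was read on a Pherastar FS reader after 72 h and normalised to vehicle wells and 100-μM positive-control wells. Four-parameter logistic dose-response fits were applied. EC50 and drug sensitivity score, a normalised area under the curve, were taken from these fits.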
# [4] = test system: DLD1 NRF2-WT; settings: 72 h; CellTiter-Glo viability
# Procedure, shortened: as §2
# [5] = test system: DLD1 NRF2-GOF; assay: drug sensitivity score (DSS) cytotoxicity (DSS score); higher = more toxic; extreme values may be limits of the assay; settings: 72 h; CellTox Green cytotoxicity
# Procedure, shortened: as §1
# [6] = test system: DLD1 NRF2-WT; assay: as above; settings: 72 h; CellTox Green cytotoxicity
# Procedure, shortened: as §1
# [7] = test system: DLD1 NRF2-GOF; assay: drug sensitivity score (DSS) viability (DSS score); higher = more sensitive; extreme values may be limits of the assay; settings: 72 h; CellTiter-Glo viability
# Procedure, shortened: as §2
# [8] = test system: DLD1 NRF2-WT; assay: as above; settings: 72 h; CellTiter-Glo viability
# Procedure, shortened: as §2
SMILES,TC50 cytotoxicity [1],TC50 cytotoxicity [2],EC50 viability [3],EC50 viability [4],drug sensitivity score [5],drug sensitivity score [6],drug sensitivity score [7],drug sensitivity score [8]
CN1CCN(C2CCN(C(=O)Nc3cc(Oc4ccc(NC(=O)C5(C(=O)Nc6ccc(F)cc6)CC5)c(F)c4)ccn3)CC2)CC1 [Golvatinib],> 2500 nM,> 2500 nM,> 2500 nM,> 2500 nM,0,0,0,1.2
CO[C@H]1CC[C@H](N2C(=O)CNc3ncc(-c4ccc(C(C)(C)O)nc4)nc32)CC1 [CC-223],> 10000 nM,> 10000 nM,1710 nM,2250 nM,0.1,0,5.3,4.6
CNC(=O)c1ccc(N2C(=S)N(c3ccc(C#N)c(C(F)(F)F)c3)C(=O)C2(C)C)cc1F [Enzalutamide],> 10000 nM,> 10000 nM,> 10000 nM,> 10000 nM,0,0,0.1,0.5
Cc1[nH]c2ccccc2c1CCNCc1ccc(/C=C/C(=O)NO)cc1 [Panobinostat],> 1000 nM,124 nM,70.1 nM,64.9 nM,1.1,6.6,11.2,13.3
CCN(CC)CCCC(C)Nc1c2ccc(Cl)cc2nc2ccc(OC)cc12 (centres undefined) [Mepacrine],7070 nM,5030 nM,1510 nM,1210 nM,9.9,11.7,18.2,19.4
Nc1nc(N)c2nc(-c3cccc(O)c3)c(-c3cccc(O)c3)nc2n1 [TG100-115],> 10000 nM,> 10000 nM,1430 nM,75.1 nM,0,0,3.5,7.1
CN1CCN(C(=O)c2ccc3cc(CCNc4ncnc5ccc(C#N)cc45)ccc3c2)CC1 [Senexin B],> 1000 nM,> 1000 nM,114 nM,102 nM,0,0,3.6,3.5
CO[C@@H](C(=O)N1Cc2[nH]nc(NC(=O)c3ccc(N4CCN(C)CC4)cc3)c2C1)c1ccccc1 [Danusertib],> 10000 nM,> 10000 nM,92.1 nM,357 nM,0,2.4,16.6,10.4
COC(=O)C[C@](O)(CCCC(C)(C)O)C(=O)O[C@@H]1C(OC)=C[C@]23CCCN2CCc2cc4c(cc2[C@H]13)OCO4 [Omacetaxine],329 nM,346 nM,54.6 nM,51.9 nM,8.4,10.1,26.9,27.6
C1=N/C2=N/c3ccc(OCCN4CCCC4)c(c3)COC/C=C/COCc3cccc(c3)C(=C1)N2 [Pacritinib],1800 nM,1980 nM,855 nM,511 nM,8.6,8.1,12.6,15.1
O=C(Nc1ccncc1)C(=O)c1cn(Cc2ccc(Cl)cc2)c2ccccc12 [Indibulin],> 10000 nM,> 10000 nM,381 nM,283 nM,0,0.4,7.8,8.6
CC(C)C[C@H](NC(=O)[C@H](CCc1ccccc1)NC(=O)CN1CCOCC1)C(=O)N[C@@H](Cc1ccccc1)C(=O)N[C@@H](CC(C)C)C(=O)[C@@]1(C)CO1 [Carfilzomib],14.3 nM,6.1 nM,7.5 nM,6.5 nM,22.3,26.9,25.8,26.6
C=CC(=O)Nc1cccc(Nc2nc(Nc3ccc(N4CCN(C(C)=O)CC4)cc3OC)ncc2C(F)(F)F)c1 [Rociletinib],> 10000 nM,3150 nM,3690 nM,2440 nM,0.7,1.5,3.1,5.3
CC(=O)c1c(C)c2cnc(Nc3ccc(N4CCNCC4)cn3)nc2n(C2CCCC2)c1=O [Palbociclib],> 10000 nM,> 10000 nM,1490 nM,315 nM,0,0.2,6.7,12.3
Cc1sc2c(c1C)C(c1ccc(Cl)cc1)=N[C@@H](CC(=O)NCCCCNC(=O)COc1cccc3c1C(=O)N(C1CCC(=O)NC1=O)C3=O)c1nnc(C)n1-2 (some centres undefined) [dBET1],> 10000 nM,> 10000 nM,> 10000 nM,620 nM,0,0,0.7,6.5
O=C(NC[C@H](O)CN1CCc2ccccc2C1)c1cc(NC2COC2)ncn1,> 10000 nM,> 10000 nM,> 10000 nM,> 10000 nM,0,0,2.4,3
COCC1(CO)C(=O)C2CCN1CC2 (centres undefined) [APR-246],> 10000 nM,> 10000 nM,> 10000 nM,> 10000 nM,0,0,0,4.5
Cc1nc(-c2cn3c(n2)-c2ccc(-c4cnn(C(C)(C)C(N)=O)c4)cc2OCC3)n(C(C)C)n1 [Taselisib],> 1000 nM,> 1000 nM,> 1000 nM,11.7 nM,0,0.4,0.9,5.5
COc1cc(OC)cc(N(CCNC(C)C)c2ccc3ncc(-c4cnn(C)c4)nc3c2)c1 [Erdafitinib],> 1000 nM,> 1000 nM,133 nM,42.1 nM,0,0,6,5.9
COC(=O)c1ccc([C@H]2c3[nH]c4ccccc4c3C[C@H](C(=O)OC)N2C(=O)CCl)cc1 [RSL3],> 10000 nM,> 10000 nM,17.4 nM,> 10000 nM,0,0,9,6.6
O=C(Nc1cc(Cl)cc2c1[nH]c1cnccc12)c1cccnc1 [PS-1145],> 25000 nM,> 25000 nM,1340 nM,771 nM,0,0,5.2,6.2
CC(=O)c1cnc2ccc(-c3cc(Cl)c(O)c(Cl)c3)nc2c1N[C@H]1CC[C@H](CN(C)C)CC1 [OTS167],> 1000 nM,> 1000 nM,54.5 nM,70.7 nM,3,0.6,13,12.8

SMILES,TC50 cytotoxicity [1],TC50 cytotoxicity [2],EC50 viability [3],EC50 viability [4],drug sensitivity score [5],drug sensitivity score [6],drug sensitivity score [7],drug sensitivity score [8]
Cc1ccc(-n2nc(C(C)(C)C)cc2NC(=O)Nc2ccc(OCCN3CCOCC3)c3ccccc23)cc1 [Doramapimod],> 10000 nM,> 10000 nM,> 10000 nM,> 10000 nM,0,0,0,0
CC(=O)[C@]1(O)Cc2c(O)c3c(c(O)c2[C@@H](O[C@H]2C[C@H](N)[C@H](O)[C@H](C)O2)C1)C(=O)c1ccccc1C3=O [Idarubicin],219 nM,150 nM,96.9 nM,45.2 nM,2.4,4.8,10,14.2
CCNC(=O)C[C@@H]1N=C(c2ccc(Cl)cc2)c2cc(OC)ccc2-n2c(C)nnc21,> 10000 nM,> 10000 nM,> 10000 nM,1090 nM,0,0,0.1,5.2
CCCCc1nc2cc(/C=C/C(=O)NO)ccc2n1CCN(CC)CC [Pracinostat],> 10000 nM,1480 nM,929 nM,795 nM,1.6,4,9.1,11.9
COc1cc2nccc(Oc3ccc(NC(=O)NC4CC4)c(Cl)c3)c2cc1C(N)=O [Lenvatinib],> 2500 nM,> 2500 nM,> 2500 nM,> 2500 nM,0,0,0,0.1
COc1cc2c(Nc3ccc(Cl)c(Cl)c3F)ncnc2cc1OC[C@@H]1C[C@@H]2CN(C)C[C@@H]2C1 [Tesevatinib],> 1000 nM,> 1000 nM,425 nM,167 nM,0,0.1,1.2,5.1
Cc1ccc(Nc2nccc(N(C)c3ccc4c(C)n(C)nc4c3)n2)cc1S(N)(=O)=O [Pazopanib],> 10000 nM,> 10000 nM,44.4 nM,53.1 nM,0,0,10.2,6.9
Cn1cc(C2=C(c3cn(C4CCN(Cc5ccccn5)CC4)c4ccccc34)C(=O)NC2=O)c2ccccc21 [Enzastaurin],> 10000 nM,> 10000 nM,> 10000 nM,> 10000 nM,0,0,0,0
CN(C)C/C=C/C(=O)Nc1cc2c(Nc3ccc(F)c(Cl)c3)ncnc2cc1O[C@H]1CCOC1 [Afatinib],> 1000 nM,> 1000 nM,145 nM,148 nM,0,0,2.9,3.3
CCNc1nc(Nc2cc(F)c(C(=O)N3CCOCC3)cc2OC)ncc1C(F)(F)F [GNE-7915],> 1000 nM,> 1000 nM,253 nM,148 nM,0,0,2.9,3.3
CON(C)C(=O)N1N=C(c2cc(F)ccc2F)S[C@@]1(CCCN)c1ccccc1 [Filanesib],> 1000 nM,> 1000 nM,4.6 nM,6.4 nM,6.2,5.3,18.6,21.5
CC[C@H](CC#N)OC(=O)N[C@@H](C)c1cccc(NC(=O)Nc2ccc(-c3cnco3)c(OC)c2)c1 [AVN944],> 10000 nM,> 10000 nM,112 nM,169 nM,0,0,15.9,15.6
CN(Cc1cnc2nc(N)nc(N)c2n1)c1ccc(C(=O)N[C@@H](CCC(=O)O)C(=O)O)cc1 [Methotrexate],> 5000 nM,> 5000 nM,29.7 nM,35.5 nM,0,0,23.8,23.4
CCc1cnn2c(NCc3ccc[n+]([O-])c3)cc(N3CCCC[C@H]3CCO)nc12 [Dinaciclib],> 1000 nM,> 1000 nM,9.6 nM,3.4 nM,0,3.3,21,27.5
COc1cc(Br)c(Nc2nc(-c3c(C)nc4ncccn34)cs2)c(Br)c1 [PTC-209],> 10000 nM,> 10000 nM,1440 nM,464 nM,0,0,6.2,10.8
O=C(/C=C\n1cnc(-c2cc(C(F)(F)F)cc(C(F)(F)F)c2)n1)NNc1cnccn1 [Selinexor],> 10000 nM,> 10000 nM,323 nM,202 nM,2.5,1.5,15.5,16.7
C=CC(=O)N1CCC[C@@H](n2nc(-c3ccc(Oc4ccccc4)cc3)c3c(N)ncnc32)C1 [Ibrutinib],> 1000 nM,> 1000 nM,> 1000 nM,> 1000 nM,0,0,0,0.1
CC(C)C[C@H](NC(=O)CNC(=O)c1cc(Cl)ccc1Cl)B(O)O [Ixazomib],246 nM,148 nM,125 nM,110 nM,6.8,9.6,10.3,11
Cc1cc2c(C(C)C)c(O)c(O)c(C=O)c2c(O)c1-c1c(C)cc2c(C(C)C)c(O)c(O)c(C=O)c2c1O [AT 101],> 100000 nM,30300 nM,6100 nM,4410 nM,1,1.7,14.4,15.9
Sc1ncnc2nc[nH]c12 [Mercaptopurine],> 10000 nM,> 10000 nM,1720 nM,4290 nM,0,0,6.5,2.1
O=C(NOCCO)c1ccc2cncn2c1Nc1ccc(I)cc1F [GDC-0623],> 2500 nM,> 2500 nM,> 2500 nM,429 nM,0,0,0,3.3
